Reference: patent publication US20240083861A1, “HSD17B13 INHIBITORS AND USES THEREOF” (FL2022-001, Inc., priority 2020, published 2024)
Blank lines part the entries; values can stand above or below the compound they belong to.

Target: T1, Recombinant human HSD17B13 enzyme (Homo sapiens, UniProt Q7Z5P4)
T1 sequence (Q7Z5P4 20-300): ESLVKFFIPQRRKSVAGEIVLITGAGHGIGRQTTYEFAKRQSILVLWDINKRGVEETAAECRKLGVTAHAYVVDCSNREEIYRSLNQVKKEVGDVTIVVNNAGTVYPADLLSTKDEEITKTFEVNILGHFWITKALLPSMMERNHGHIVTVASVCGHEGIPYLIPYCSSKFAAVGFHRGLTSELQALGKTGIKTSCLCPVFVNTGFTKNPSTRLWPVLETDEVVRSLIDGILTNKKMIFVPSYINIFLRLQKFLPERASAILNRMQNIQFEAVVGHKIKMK
Experiment: HSD17b13 NAD(P)H-Glo biochemical assay
Conditions: for IC50: 50 uM estradiol, 1 mM NAD+, NAD(P)H-Glo luminescence, read-out: HSD17β13 IC50
Procedure, shortened: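 Recombinant human HSD17B13 in 20 mM Tris pH7.4 with 0.002% Tween-20 and 0.02% BSA was preincubated with inhibitor for 20 minutes at RT. The reaction ran 3 hours at 37° C with 50 uM estradiol and 1 mM NAD+ (final). NADH formed was detected by NAD(P)H-Glo luminescence after 1 hour at RT.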

Structure (SMILES): CS(=O)(=O)N1CCC(c2ccc3c(-c4cc(O)c(F)c(C(F)(F)F)c4)n[nH]c3c2)CC1 [Compound 15, 2-Fluoro-5-(6-(1-(methylsulfonyl)piperidin-4-yl)-1H-indazol-3-yl)-3-(trifluoromethyl)phenol]
- IC50: 0.1 to 1 µM

Structure (SMILES): CN(C)C(=O)C1CN(c2cc3c(cn2)c(-c2cc(C(F)(F)F)c(F)c(O)c2F)nn3C)CCO1 (stereo not drawn) [Compound 9.65, 4-(3-(2,4-Difluoro-3-hydroxy-5-(trifluoromethyl)phenyl)-1-methyl-1H-pyrazolo[4,3-c]pyridin-6-yl)-N,N-dimethylmorpholine-2-carboxamide]
- IC50: 0.1 to 1 µM

Structure (SMILES): Cn1nc(-c2cc(C(F)(F)F)c(F)c(O)c2F)c2cnc(N3CCC(O)CC34CC4)cc21 (stereo not drawn) [Compound 9.49, 4-(3-(2,4-Difluoro-3-hydroxy-5-(trifluoromethyl)phenyl)-1-methyl-1H-pyrazolo[4,3-c]pyridin-6-yl)-4-azaspiro [2.5]octan-7-ol]
- IC50: < 0.1 µM

Structure (SMILES): CN(c1cc2c(cc1F)c(-c1cc(C(F)(F)F)c(F)c(O)c1F)nn2C)C1CCOCC1 [Compound 9.116, 2,6-Difluoro-3-(5-fluoro-1-methyl-6-(methyl(tetrahydro-2H-pyran-4-yl)amino)-1H-indazol-3-yl)-5-(trifluoromethyl)phenol]
- IC50: < 0.1 µM

Structure (SMILES): Cn1nc(-c2cc(C(F)(F)F)c(F)c(O)c2F)c2cnc(N3CCCOCC34CC4)cc21 [Compound 9.69, 2,6-Difluoro-3-(1-methyl-6-(8-oxa-4-azaspiro[2.6]nonan-4-yl)-1H-pyrazolo[4,3-c]pyridin-3-yl)-5-(trifluoromethyl)phenol]
- IC50: < 0.1 µM

Structure (SMILES): Oc1cc(-c2nc3cc(-c4ccc(O)c(Cl)c4)ccc3o2)ccc1F [Compound 3, 2-Chloro-4-(2-(4-fluoro-3-hydroxyphenyl)benzo[d]oxazol-5-yl)phenol]
- IC50: 0.1 to 1 µM

Structure (SMILES): Cn1nc(-c2ccc(F)c(O)c2)c2ccc(-c3ccc(O)c(Cl)c3)cc21 [Compound 17, 2-Chloro-4-(3-(4-fluoro-3-hydroxyphenyl)-1-methyl-1H-indazol-6-yl)phenol]
- IC50: 0.1 to 1 µM

Structure (SMILES): Cn1nc(-c2cc(C(F)(F)F)c(F)c(O)c2F)c2cnc(N3CCOCC3C3(C)CC3)cc21 (stereo not drawn) [Compound 9.61, 2,6-Difluoro-3-(1-methyl-6-(3-(1-methylcyclopropyl)morpholino)-1H-pyrazolo[4,3-c]pyridin-3-yl)-5-(trifluoromethyl)phenol]
- IC50: < 0.1 µM

Structure (SMILES): Cn1nc(-c2cc(C(F)(F)F)c(F)c(O)c2F)c2cnc(N(CC3CC3)C3CCC3)cc21 [Compound 9.51, 3-(6-(Cyclobutyl(cyclopropylmethyl)amino)-1-methyl-1H-pyrazolo[4,3-c]pyridin-3-yl)-2,6-difluoro-5-(trifluoromethyl)phenol]
- IC50: < 0.1 µM

Structure (SMILES): Cc1cc(-c2nc3cc(C(=O)NC4CCC4)ccc3o2)cc(O)c1F [Compound 2.02, N-Cyclobutyl-2-(4-fluoro-3-hydroxy-5-methylphenyl)benzo[d]oxazole-5-carboxamide]
- inhibition at 30 µM (at 30 uM compound, read-out: HSD17β13 % inhibition at 30 uM): 20%

Structure (SMILES): O=C(NC1CCC1)c1ccc2oc(-c3cc(O)cc(C(F)(F)F)c3)nc2c1 [Compound 2, N-Cyclobutyl-2-(3-hydroxy-5-(trifluoromethyl)phenyl)benzo[d]oxazole-5-carboxamide]
- IC50: 0.1 to 1 µM

Structure (SMILES): Cn1nc(-c2cc(C(F)(F)F)c(F)c(O)c2F)c2cnc(N3CCOCC3=O)cc21 [Compound 9.101, 4-(3-(2,4-Difluoro-3-hydroxy-5-(trifluoromethyl)phenyl)-1-methyl-1H-pyrazolo[4,3-c]pyridin-6-yl)morpholin-3-one]
- IC50: 0.1 to 1 µM

Structure (SMILES): CN1CCN(c2cc3c(cn2)c(-c2cc(C(F)(F)F)c(F)c(O)c2F)nn3C)C2(CC2)C1=O [Compound 9.112, 4-(3-(2,4-Difluoro-3-hydroxy-5-(trifluoromethyl)phenyl)-1-methyl-1H-pyrazolo[4,3-c]pyridin-6-yl)-7-methyl-4,7-diazaspiro [2.5]octan-8-one]
- IC50: < 0.1 µM

Structure (SMILES): Cn1nc(-c2cc(C(F)(F)F)c(F)c(O)c2F)c2cnc(N3CCOCC34CC4)cc21 [Compound 8, 2,6-Difluoro-3-(1-methyl-6-(7-oxa-4-azaspiro[2.5]octan-4-yl)-1H-pyrazolo[4,3-c]pyridin-3-yl)-5-trifluoromethyl phenol]
- IC50: < 0.1 µM

Structure (SMILES): Oc1c(F)c(-c2nn(C3CCC3)c3cc(N4CCOCC45CC5)ncc23)cc(C(F)(F)F)c1F [Compound 9.56, 3-(1-Cyclobutyl-6-(7-oxa-4-azaspiro[2.5]octan-4-yl)-1H-pyrazolo[4,3-c]pyridin-3-yl)-2,6-difluoro-5-(trifluoromethyl)phenol]
- IC50: < 0.1 µM

Structure (SMILES): Cn1nc(-c2cc(O)c(F)c(C(F)(F)F)c2)c2ccc(C3=CCN(S(C)(=O)=O)CC3)cc21 [Compound 14.01, 2-Fluoro-5-(1-methyl-6-(1-(methylsulfonyl)-1,2,3,6-tetrahydropyridin-4-y1)-1H-indazol-3-y1)-3-(trifluoromethyl)phenol]
- IC50: < 0.1 µM

Structure (SMILES): CS(=O)(=O)N1CC=C(c2ccc3c(-c4cc(O)c(F)c(C(F)(F)F)c4)n[nH]c3c2)CC1 [Compound 14, 2-Fluoro-5-(6-(1-(methylsulfonyl)-1,2,3,6-tetrahydropyridin-4-yl)-1H-indazol-3-yl)-3-(trifluoromethyl)phenol]
- IC50: 0.1 to 1 µM

Structure (SMILES): CCC1COCCN1c1cc2c(cn1)c(-c1cc(C(F)(F)F)c(F)c(O)c1F)nn2C (stereo not drawn) [Compound 9.45, 3-(6-(3-Ethylmorpholino)-1-methyl-1H-pyrazolo[4,3-c]pyridin-3-yl)-2,6-difluoro-5-(trifluoromethyl)phenol]
- IC50: < 0.1 µM

Structure (SMILES): CS(=O)(=O)N1CCN(c2cnc3c(-c4cc(O)c(F)c(C(F)(F)F)c4)n[nH]c3n2)CC1 [Compound 10.04, 2-Fluoro-5-(6-(4-(methylsulfonyl)piperazin-1-yl)-1H-pyrazolo[3,4-b]pyrazin-3-yl)-3-(trifluoromethyl)phenol]
- IC50: 0.1 to 1 µM

Continued, values first:

- IC50: < 0.1 µM
Structure (SMILES): Cn1nc(-c2cc(C(F)(F)F)c(F)c(O)c2F)c2cnc(N3CCC(c4ccccc4)CC3)nc21 [Compound 18.44, 2,6-Difluoro-3-(1-methyl-6-(4-phenylpiperidin-1-y1)-1H-pyrazolo[3,4-d]pyrimidin-3-y1)-5-(trifluoromethyl)phenol]

- IC50: < 0.1 µM
Structure (SMILES): Cn1nc(-c2cc(C(F)(F)F)c(F)c(O)c2F)c2cnc(N(Cc3ccccc3)C3CCC3)nc21 [Compound 18.124, 3-(6-(Benzyl(cyclobutyl)amino)-1-methyl-1H-pyrazolo[3,4-d]pyrimidin-3-y1)-2,6-difluoro-5-(trifluoromethyl)phenol]

- IC50: < 0.1 µM
Structure (SMILES): COC1CCCN(c2ncc3c(-c4cc(C(F)(F)F)c(F)c(O)c4F)nn(C)c3n2)C1 (stereo not drawn) [Compound 18.06, 2,6-Difluoro-3-(6-(3-methoxypiperidin-1-yl)-1-methyl-1H-pyrazolo[3,4-d]pyrimidin-3-yl)-5-(trifluoromethyl)phenol]

- IC50: 0.1 to 1 µM
Structure (SMILES): CN1CCN(c2ncc3c(-c4cc(C(F)(F)F)c(F)c(O)c4F)nn(C)c3n2)CC1c1ncc[nH]1 (stereo not drawn) [Compound 18.101, 3-(6-(3-(1H-Imidazol-2-yl)-4-methylpiperazin-1-y1)-1-methyl-1H-pyrazolo[3,4-d]pyrimidin-3-yl)-2,6-difluoro-5-(trifluoromethyl)phenol]

- IC50: < 0.1 µM
Structure (SMILES): Cn1nc(-c2cc(C(F)(F)F)c(F)c(O)c2F)c2cnc(N3CCN(S(C)(=O)=O)C(C#N)C3)nc21 (stereo not drawn) [Compound 18.118, 4-(3-(2,4-Difluoro-3-hydroxy-5-(trifluoromethyl)phenyl)-1-methyl-1H-pyrazolo[3,4-d]pyrimidin-6-yl)-1-(methylsulfonyl)piperazine-2-carbonitrile]

- IC50: < 0.1 µM
Structure (SMILES): C[C@@H]1CN(c2cc3c(cn2)c(-c2cc(C(F)(F)F)c(F)c(O)c2F)nn3C)CCN1C(=O)Nc1ccccc1 [Compound 21.07, (R)-4-(3-(2,4-Difluoro-3-hydroxy-5-(trifluoromethyl)phenyl)-1-methyl-1H-pyrazolo[4,3-c]pyridin-6-y1)-2-methyl-N-phenylpiperazine-1-carboxamide]

- IC50: < 0.1 µM
Structure (SMILES): Cn1nc(-c2cc(C(F)(F)F)c(F)c(O)c2F)c2cnc(N3CCC(CO)CC3)nc21 [Compound 18.14, 2,6-Difluoro-3-(6-(4-(hydroxymethyl)piperidin-1-y1)-1-methyl-1H-pyrazolo[3,4-d]pyrimidin-3-y1)-5-(trifluoromethyl)phenol]

- IC50: < 0.1 µM
Structure (SMILES): CN1CCC2(CCN(c3ncc4c(-c5cc(C(F)(F)F)c(F)c(O)c5F)nn(C)c4n3)CC2)C1=O [Compound 18.08, 8-(3-(2,4-Difluoro-3-hydroxy-5-(trifluoromethyl)phenyl)-1-methyl-1H-pyrazolo[3,4-d]pyrimidin-6-yl)-2-methyl-2,8-diazaspiro[4.5]decan-1-one]

- IC50: < 0.1 µM
Structure (SMILES): Cn1nc(-c2cc(C(F)(F)F)c(F)c(O)c2F)c2cnc(N3CCCC(c4ncccn4)C3)nc21 (stereo not drawn) [Compound 18.76, 2,6-Difluoro-3-(1-methyl-6-(3-(pyrimidin-2-y1)piperidin-1-yl)-1H-pyrazolo[3,4-d]pyrimidin-3-y1)-5-(trifluoromethyl)phenol]

- IC50: < 0.1 µM
Structure (SMILES): Cn1nc(-c2cc(C(F)(F)F)c(F)c(O)c2F)c2cnc(N3CCCCC3COc3ccccc3)nc21 (stereo not drawn) [Compound 18.98, 2,6-Difluoro-3-(1-methyl-6-(2-(phenoxymethyl)piperidin-1-yl)-1H-pyrazolo[3,4-d]pyrimidin-3-yl)-5-(trifluoromethyl)phenol]

- IC50: < 0.1 µM
Structure (SMILES): Cn1nc(-c2cc(C(F)(F)F)c(F)c(O)c2F)c2cnc(N3CCC4(CCOCC4)CC3)nc21 [Compound 18.36, 2,6-Difluoro-3-(1-methyl-6-(3-oxa-9-azaspiro[5.5]undecan-9-yl)-1H-pyrazolo[3,4-d]pyrimidin-3-y1)-5-(trifluoromethyl)phenol]
